Experimental data as given in US5696117A, “Benzoxazine antimicrobial agents” (Ortho Pharmaceutical Corporation, priority 1995, dated 1997).

What follows are compounds tested against T1, Kinase A and SpoOF (Bacillus subtilis, UniProt P16497) (assay: Autophosphorylation of Kinase A and Transphosphorylation of SpoOF Assay (HPK in vitro assay)). Settings: inhibition of KinA autophosphorylation / SpoOF transphosphorylation, inhibitor concentrations from 1 to 500 μM.
T1 construct: made in house; host or cells: recombinant E. coli (overexpression)
T1 sequence (P16497 1-606): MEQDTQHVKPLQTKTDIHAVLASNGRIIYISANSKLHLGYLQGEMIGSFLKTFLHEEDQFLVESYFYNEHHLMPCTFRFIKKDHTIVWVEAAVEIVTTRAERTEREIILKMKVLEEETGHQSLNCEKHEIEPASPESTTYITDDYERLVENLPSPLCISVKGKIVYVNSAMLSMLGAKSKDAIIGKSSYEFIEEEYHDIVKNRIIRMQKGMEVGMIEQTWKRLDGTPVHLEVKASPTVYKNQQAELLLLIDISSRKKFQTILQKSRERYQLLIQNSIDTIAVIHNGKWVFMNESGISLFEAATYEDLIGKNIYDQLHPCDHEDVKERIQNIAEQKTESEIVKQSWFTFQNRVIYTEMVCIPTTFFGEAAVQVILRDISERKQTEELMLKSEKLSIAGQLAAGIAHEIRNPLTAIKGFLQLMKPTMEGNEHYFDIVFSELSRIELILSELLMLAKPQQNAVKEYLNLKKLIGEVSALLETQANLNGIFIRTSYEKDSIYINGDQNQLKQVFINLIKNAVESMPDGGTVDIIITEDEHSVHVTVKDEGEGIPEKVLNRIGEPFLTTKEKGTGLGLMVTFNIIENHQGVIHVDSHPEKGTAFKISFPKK
Format: biochemical
Method: 1. Autophosphorylation of Kinase A and Transphosphorylation of SpoOF Assay
To study the effect of the compounds of the present invention on the signal transduction process in bacteria, the inhibiting effect of the compounds on the sporulation operon proteins Kinase A and SpoOF was examined. Specifically, the inhibition of autophosphorylation of Kinase A and the transphosphorylation of SpoOF was determined in the following assays. The SpoOF response regulator is the primary substrate for phosphorylation by the protein kinase, Kin A, involved in the sporulation process in bacteria. See D. Burbulys, K. A. Trach, J. A. Hoch, Cell, 64, 545-552 (1991). SpoOF and KinA were prepared from recombinant E. coli overexpressing the proteins (J. Cavanagh et al, Amino Acids, 6, 131-140 (1994) and references therein).
The following stock reagents were either prepared and used promptly or stored at the indicated temperature:
8× Salts: 2M KCl (5 mL), 1M MgCl2 (800 mL), 1M CaCl2 (100 mL), 10 mg/mL phenylmethylsulfonyl fluoride (200 mL), 1M dithioreitol (50 mL), 0.25M Na2 EDTA (32 mL) and H2 O 3.82 mL (-20° C.)
5× Loading Dye: 0.5M TRIS-HCl-pH 6.8 (7.5 mL), 10% SDS (2 mL) 0.1% bromophenol blue (0.5 mL), 100% glycerol (3 mL) and 12.5M 2-mercaptoethanol (0.3 mL)
1-1.3 mg/mL KinA:15 mM TRIS-HCl, pH 8.0, 6 mM KCl; 4 mM 2-mercaptoethanol; 40% glycerol (-20° C.)
1 mg/mL SpoOF: 17.5 mM TRIS-HCl, pH 8.0; 0.7 mM KCl; 0.7 mM MgCl2; 0.7 mM CaCl2; 5mM 2-mercaptoethanol; 30% Glycerol (-20° C.)
5% Stacking Gel: 40% 29:1 acrylamide:bis acrylamide (1.25 mL), 0.5M TRIS-HCl, pH 6.8 (2.5 mL), 10% SDS (0.1 mL), D-H2 O (6.15 mL) 10% ammonium persulfate (100 mL) and TEMED (25 mL)
SDS Running Buffer: TRIS-BASE (3.02 g), glycine (14.4 g) SDS (1 g), D-H2 O (to 1 L)
The reaction mixture was prepared from 8× Salts (87 μL), 1M TRIS, pH 8 (118 μL), 50% glycerol (63 μL), SpoOF (14.1 μL) and KinA (7.0 μL). Microcentrifuge tubes were charged with the reaction mixture (18.5 μL) and a 1.0 mM solution of the test compound in 5% DMSO (18.5 μL), and incubated for 15 min on ice. 100 mM ATP solution (3.0 μl, containing 625 μCi [^32 P]ATP) was added, and the mixture left for 10 minutes at room temperature. The reaction was quenched with 5× loading dye (10 μL per tube) and the samples were loaded on a prepared 5% Stacking Gel, or stored on dry ice until ready for use. The prepared wells were filled with SDS Running Buffer, samples were loaded into the wells, and 80 volts were applied to the gel until the dye front reached the bottom of the stacking gel. The voltage was then increased to 250 volts until electrophoresis was complete. Radioactive bands in the gel corresponding to phosphorylated KinA and SpoOF were imaged and quantitated with a phosphoimager.
If either enzyme was inhibited (as evidenced by the absence of labelled protein in the developed gel), an IC50 was calculated by running the assay with a range of inhibitor concentrations from 1 to 500 μM. After electrophoresis of the reaction mixtures, percent inhibition was determined by measuring the concentration of radioactive phosphorus with a phosphoimager and calculating the values using a software program (BioRad Molecular Analyst). IC50 values of less than 500 μM are considered active.
For `Cl.N=C(N)NCCc1ccc(OCCC2Oc3cc([N+](=O)[O-])ccc3N(Cc3cccc(Cl)c3)C2=O)cc1` (stereo not shown) [Compound 84, 3,4-Dihydro-4-(3-chlorobenzyl)-2-{2-[4-(2-guanidinoethyl)phenoxy]ethyl}-7-nitro-3-oxo-2H-1,4-benzoxazine Monohydrochloride], the IC50 was 30 µM.
Work on `Cl.N=C(N)NCCc1ccc(OCCC2Oc3cc([N+](=O)[O-])ccc3N(Cc3ccccc3Cl)C2=O)cc1` (stereo not shown) [Compound 87, 4-(2-Chlorobenzyl)-3,4-dihydro-2-{2-[4-(2-guanidinoethyl)phenoxy]ethyl}-7-nitro-3-oxo-2H-1,4-benzoxazine Monohydrochloride] yielded an IC50 of 11 µM.
In the case of `N=C(N)NCCc1ccc(OCCC2Oc3cc([N+](=O)[O-])ccc3N(Cc3cccc([N+](=O)[O-])c3)C2=O)cc1` (stereo not shown) [Compound 91, 3,4-Dihydro-2-{2-[4-(2-guanidinoethyl)phenoxy]ethyl}-7-nitro-4-(3-nitrobenzyl)-3-oxo-2H-1,4-benzoxazine], the IC50 is reported as 33 µM.
`N=C(N)NCCc1ccc(OCCC2Oc3ccccc3N(Cc3cccc([N+](=O)[O-])c3)C2=O)cc1` (stereo not shown) [Compound 95, 3,4-Dihydro-2-{2-[4-(2-guanidinoethyl)phenoxy]ethyl}-4-(3-nitrobenzyl)-3-oxo-2H-1,4-benzoxazine] showed an IC50 of 32 µM.
In the case of `N=C(N)NCCc1ccc(OCCC2Oc3cc([N+](=O)[O-])ccc3N(Cc3ccc([N+](=O)[O-])cc3)C2=O)cc1` (stereo not shown) [Compound 97, 3,4-Dihydro-2-{2-[4-(2-guanidinoethyl)phenoxy]ethyl}-7-nitro-4-(4-nitrobenzyl)-3-oxo-2H-1,4-benzoxazine], the IC50 is reported as 53 µM.
Compound `COc1ccc2c(c1)OC(CCOc1ccc(CCNC(=NC(=O)OC(C)(C)C)NC(=O)OC(C)(C)C)cc1)C(=O)N2Cc1cccc([N+](=O)[O-])c1` (stereo not shown) [Compound 99, 2-{2-[4-(2-(N,N'-Bis-tert-butoxycarbonylguanidino)ethyl)phenoxy]ethyl}-3,4-dihydro-7-methoxy-4-(3-nitrobenzyl)-3-oxo-2H-1,4-benzoxazine] has an IC50 of 343 µM.
`COc1ccc2c(c1)OC(CCOc1ccc(CCNC(=N)N)cc1)C(=O)N2Cc1cccc([N+](=O)[O-])c1` (stereo not shown) [Compound 100, 3,4-Dihydro-2-{2-[4-(2-guanidinoethyl)phenoxy]ethyl}-7-methoxy-4-(3-nitrobenzyl)-3-oxo-2H-1,4-benzoxazine] gave an IC50 of 32 µM.
`COC(=O)c1ccc(CN2C(=O)C(CCOc3ccc(CCN)cc3)Oc3ccccc32)cc1` (stereo not shown) [Compound 104, 2-{2-[4-(2-Aminoethyl)phenoxy]ethyl}-4-(4-carbomethoxybenzyl)-3,4-dihydro-3-oxo-2H-1,4-benzoxazine] was tested, and the IC50 was 24 µM.
With `COC(=O)c1cccc(CN2C(=O)C(CCOc3ccc(CCN)cc3)Oc3ccccc32)c1` (stereo not shown) [Compound 106, 2-{2-[4-(2-Aminoethyl)phenoxy]ethyl}-4-(3-carbomethoxybenzyl)-3,4-dihydro-3-oxo-2H-1,4-benzoxazine] the IC50 was 166 µM.
`NCCc1ccc(OCCC2Oc3ccccc3N(Cc3ccc(C(=O)O)cc3)C2=O)cc1` (stereo not shown) [Compound 110, 4-{3,4-Dihydro-2-[2-(4-(2-aminoethyl)phenoxy)]ethyl-3-oxo-2H-1,4-benzoxazin-4-yl}methylbenzoic Acid] showed an IC50 of 324 µM.
In the case of `CC(C)(C)OC(=O)NCCc1ccc(OCCC2Oc3ccccc3N(Cc3cccc(C(=O)O)c3)C2=O)cc1` (stereo not shown) [Compound 111, 3-{3,4-Dihydro-2-[2-(4-(2-(-t-butoxycarbonylamino)ethyl)phenoxy)]ethyl-3-oxo-2H-1,4-benzoxazin-4-yl}methylbenzoic Acid], the IC50 is reported as 113 µM.
`NCCc1ccc(OCCC2Oc3ccccc3N(Cc3cccc(C(=O)O)c3)C2=O)cc1` (stereo not shown) [Compound 112, 3-{3,4-Dihydro-2-[2-(4-(2-aminoethyl)phenoxy)]ethyl-3-oxo-2H-1,4-benzoxazin-4-yl}methylbenzoic Acid] was tested, and the IC50 was 254 µM.
In the case of `O=C(O)CCc1cccc(OCCC2Oc3ccccc3N(Cc3cccc(Cl)c3)C2=O)c1` (stereo not shown) [Compound 127, 3-[3-[2-{4-(3-Chlorobenzyl)-3,4-dihydro-3-oxo-2H-1,4-benzoxazin-2-yl}ethoxy]phenyl]propionic Acid], the IC50 is reported as 251 µM.
`O=C1NC(=O)C(c2ccc(OCCC3Oc4ccccc4N(Cc4cccc(Cl)c4)C3=O)cc2)S1` (stereo not shown) [Compound 134, 5-[4-{2-[4-(3-Chlorobenzyl)-3,4-dihydro-3-oxo-2H-1,4-benzoxazin-2-yl]ethoxy}phenyl]thiazolidine-2,4-dione] was tested, and the IC50 was 23 µM.
With `N=C(N)NCCc1ccc(OCCC2Oc3ccccc3N(Cc3ccc([N+](=O)[O-])cc3)C2=O)cc1` (stereo not shown) [Compound 139, 3,4-Dihydro-2-{2-[4-(2-guanidinoethyl)-phenoxy]ethyl}-4-(4-nitrobenzyl)-3-oxo-2H-1,4-benzoxazine] the IC50 was 24 µM.
With `COc1ccc(CN2C(=O)C(CCOc3ccc(CCNC(=NC(=O)OC(C)(C)C)NC(=O)OC(C)(C)C)cc3)Oc3ccccc32)cc1` (stereo not shown) [Compound 140, 2-{2-[4-[2-(N,N-Bis-tert-butoxycarbonylguanidino)ethyl]phenoxy]ethyl}-3,4-dihydro-4(4-methoxybenzyl)-3-oxo-2H-1,4-benzoxazine] the IC50 was 343 µM.
Compound `NCCCc1ccc(OCCC2Oc3ccccc3N(Cc3ccc(Cl)cc3)C2=O)cc1` (stereo not shown) [Compound 142, 2-[2-[4-(3-Aminopropyl)phenoxy]ethyl]-4-(4-chlorobenzyl)-3,4-dihydro-3-oxo-2H-1,4-benzoxazine] has an IC50 of 42 µM.
`CC(C)(C)OC(=O)N=C(NCCc1ccc(OCCC2Oc3cc([N+](=O)[O-])ccc3N(Cc3ccccc3[N+](=O)[O-])C2=O)cc1)NC(=O)OC(C)(C)C` (stereo not shown) [Compound 143, 2-{2-[4-(2-(N,N-Bis-tert-butoxycarbonylguanidino)ethyl)phenoxy]ethyl}-3,4-dihydro-7-nitro-4-(2-nitrobenzyl) 3-oxo-2H-1,4-benzoxazine] was tested, and the IC50 was 73 µM.
`CC(C)(C)OC(=O)NCCc1ccc(OCCC2Oc3ccccc3N(Cc3cccc(Cl)c3)C2=O)cc1` (stereo not shown) [Compound 144, 2-[2-[4-(2-(t-Butoxycarbonylamino)ethyl)phenoxy]ethyl]-4-(3-chlorobenzyl)-3,4-dihydro-3-oxo-2H-1,4-benzoxazine] was tested, and the IC50 was 348 µM.
